Results from patent US10851089B2, “Matrix metalloproteinase (MMP) inhibitors and methods of use thereof” (Foresee Pharmaceuticals Co., Ltd., priority 2018, dated 2020).
pIC50: −log10 of the molar value.

Key:
[1] = system: bleomycin-induced unilateral lung fibrosis; test: Bleomycin-induced SD rat unilateral lung fibrosis model (IPF); format: in vivo; design: Left lung bronchial and arteriole damage score, fibrosis core / Left lung bronchial and arteriole damage score, fibrosis border: scale not given here; Fibrosis score 1-3 (ratio of left lung fibrosis score) / Fibrosis score 4-8 (ratio of left lung fibrosis score) / Left lung fibrosis area: unit not given here; conditions: for Left lung bronchial and arteriole damage score, fibrosis border / Left lung bronchial and arteriole damage score, fibrosis core: 14 days; for Left lung bronchial and arteriole damage score, fibrosis border: model 6.56 ± 0.51; for Left lung bronchial and arteriole damage score, fibrosis core: model 8.34 ± 0.24; for Left lung fibrosis score (Ashcraft): model 3.7 ± 0.1; for Fibrosis score 1-3 (ratio of left lung fibrosis score): model 44.0 ± 3.1; for Fibrosis score 4-8 (ratio of left lung fibrosis score): model 56.0 ± 3.1; for Left lung fibrosis area: model 69.1 ± 3.3
Description: The purpose of this study was to evaluate the therapeutic effect of FC-4 on bleomycin (BLM) induced unilateral lung fibrosis model in Sprague Dawley (SD) rats. Male SD rats (n=50) were randomly divided into the following groups: Sham group (n=10), Model group (n=10), FC-4 administered at 10 mg/kg/day group (n=10), FC-4 administered at 30 mg/kg/day group (n=10), and FC-4 administered at 100 mg/kg/day group (n=10). All test drugs were delivered orally starting from day 8 of modeling for 14 days. Saline solution was taken for sham and model groups once a day, and FC-4 twice a day for drug treatment groups. Rats were anesthetized and the trachea was exposed. Saline was administrated via direct intra-trachea injection in the sham group, and the other groups' animals received a BLM injection at a dose of 3 mg/kg in volume of 1.0 ml/kg. All animals were processed using a non invasive lung function test with EMMS Whole Body Plethysmography system at pre-modeling, and at days 3, 7, 11, 14, 18 and 21 of modeling. One day after the last drug delivery, the left lung of all animals was perfused with 10% formalin, and processed for pathology analysis.
Animals: Species and quality level: SD rats, SPF grade. Gender and number: male, 93. Purchasing body weight range: 260-280 g. Company Certificate No.: SCXX (Jing) 2012-001, Beijing Vital River Laboratory Animal Technology Co., Ltd. Animal Housing: Rats were housed in the Animal House Facility of the Nanjing BioSciKin Co. Ltd. under international standards for temperature, humidity and light control system. The animal use protocol was reviewed and approved by the Institutional Animal Care and Use Committee (IACUC) of KCI Biotech Inc. All experimental procedures were conducted in conformity with institutional guidelines of KCI Biotech Inc.
Model Establishment: This study was carried out in strict accordance with the SOP institutional guidelines for the care and use of laboratory animals. Rats were anesthetized by intraperitoneal injection of pentobarbital sodium at dose of 50 mg/kg. Then rat neck skin was disinfected and opened in layers. The trachea was exposed carefully. Bleomycin (BLM) was directly injected into the left main bronchus at a dose of 3 mg/kg body weight in volume of 1.0 ml/kg via a cannula. After closing the trachea and skin in layers the animal was moved on an electric heat pad at 37° C. to await waking up from the anesthesia before returning to holding cages with free access to water and diet.
Experiment Grouping: Rats were assigned into 5groups: Sham (Group-1, n=10), Model (Group-2, n=10), FC-4-Low dose (Group-3, 10 mg/kg/day, n=10), FC-4-Middle dose (Group-4, 30 mg/kg/day, n=10), FC-4-High dose (Group-5, 100 mg/kg/day, n=10) (Table 1).
Drug Administration: Test article FC-4 were designed as an oral administration via a gastric perfusion. FC-4 was delivered twice a day starting from day-8 of modeling for 14 days. (Table 3.1).
Endpoint: a) Non invasive lung function test: All animals were given a non-invasive lung function examination with EMMS Whole Body Plethysmography (WBP) system at multiple time points during the study periods, including at pre-IPF modeling, day-3 of IPF, day-7 of IPF before dosing, day-11 of IPF, day-14 of IPF, day-18 of IPF and day-21 of IPF before sacrificing the animals, focusing on the parameters of tidal volume (TV), breath rate, inspiratory volume per minute (MV) and Penh. index. b) Left lung collection for pathology analysis: After the last examination of lung function, all animals were euthanized according to the standard SOP at KCI. After confirming the animal death, each animal received a systemic perfusion with 10% formaldehyde solution, then the left lung was harvested and perfused again with an equal volume of 10% formaldehyde solution (3 ml for each lung). […]

[2] = molecular target: recombinant human MMP-10 (Homo sapiens (Human), UniProt P09238); test: MMP selectivity assay MMP-10; format: biochemical
Chain of recombinant human MMP-10 (P09238 99-476): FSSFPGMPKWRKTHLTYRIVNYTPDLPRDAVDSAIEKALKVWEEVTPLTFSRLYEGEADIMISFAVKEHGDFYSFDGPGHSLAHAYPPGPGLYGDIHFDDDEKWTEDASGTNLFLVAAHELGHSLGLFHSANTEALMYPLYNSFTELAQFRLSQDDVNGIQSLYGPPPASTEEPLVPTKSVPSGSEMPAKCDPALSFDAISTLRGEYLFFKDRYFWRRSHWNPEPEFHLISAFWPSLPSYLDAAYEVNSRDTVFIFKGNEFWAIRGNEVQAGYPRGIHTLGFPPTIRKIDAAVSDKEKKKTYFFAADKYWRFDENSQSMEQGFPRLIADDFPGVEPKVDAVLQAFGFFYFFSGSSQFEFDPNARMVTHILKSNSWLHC
Description: (§1) The inhibitory effect of compounds on the rate of cleaving fluorogenic MMP substrate (Enzo, BML-P128) by recombinant human MMP-12 catalytic domain (Enzo, BML-SE138) was carried out by methods known in the art. Briefly, to each well of a 96-well black opaque plate, all the reagents were sequentially added by pipetting, and the final reaction contained 4 nM of recombinant human MMP-12 catalytic domain, 4 μM of fluorogenic MMP substrate, and various concentrations (0.15 nM to 10,000 nM) of tested compound dilutions in HEPES buffer (pH 7.5) containing 10 mM of CaCl2, 0.01% Brij® 35 (polyoxyethylene (23) lauryl ether), and 0.1 mg/ml of BSA.
(§2) The enzyme and compounds were pre-incubated on a shaker to mix in wells. After an hour of mixing, fluorogenic substrate was added to each well. Reaction without enzyme was used as a blank control in the plate. The plate was then fed into a plate reader to measure fluorescence intensity at Excitation/Emission wavelengths of 340 nm/440 nm every 10 mins for at least 1 hour at 37° C. The IC50 of each compound in MMP-12 inhibition was determined by using a readout obtained at time point 30 minutes.
(§3) The MMP selectivity assay was performed by using other recombinant human MMPs, including MMP-1, MMP-2, MMP-3, MMP-7, MMP-8, MMP-9, MMP-10, MMP-13, and MMP-14. The IC50 of the compounds for the other recombinant human MMPs was determined as described above in Example 1, and are shown in Table 2.

[3] = molecular target: recombinant human MMP-8 (Homo sapiens (Human), UniProt P22894); test: MMP selectivity assay MMP-8; format: biochemical
Chain of recombinant human MMP-8 (P22894 101-467): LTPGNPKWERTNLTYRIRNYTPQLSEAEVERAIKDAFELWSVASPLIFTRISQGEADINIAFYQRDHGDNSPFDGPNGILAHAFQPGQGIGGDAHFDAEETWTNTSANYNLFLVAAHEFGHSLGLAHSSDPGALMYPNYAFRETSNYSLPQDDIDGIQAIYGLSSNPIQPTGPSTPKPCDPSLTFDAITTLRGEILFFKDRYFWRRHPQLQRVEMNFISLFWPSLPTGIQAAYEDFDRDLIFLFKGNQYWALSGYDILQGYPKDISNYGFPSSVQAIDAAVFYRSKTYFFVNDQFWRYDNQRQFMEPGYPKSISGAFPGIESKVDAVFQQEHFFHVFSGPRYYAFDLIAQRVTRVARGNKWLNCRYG
Description: as §1, §2, §3

Cc1cc(COc2ccc(Sc3ccoc3C3NC(=O)NC3=O)cc2)ccn1 (stereo not shown) [FC-4]
Left lung bronchial and arteriole damage score, fibrosis border ([1]; 10 mg/kg/d p.o. BID): 4.2 ± 0.516 | Left lung bronchial and arteriole damage score, fibrosis core ([1]; 10 mg/kg/d p.o. BID): 6.04 ± 0.19 | Left lung fibrosis score (Ashcraft) ([1]; 10 mg/kg/d p.o. BID): 2.5 ± 0.2 | Fibrosis score 1-3 (ratio of left lung fibrosis score) ([1]; 10 mg/kg/d p.o. BID): 82.0 ± 5.5 | Fibrosis score 4-8 (ratio of left lung fibrosis score) ([1]; 10 mg/kg/d p.o. BID): 18.0 ± 5.5 | Left lung fibrosis area ([1]; 10 mg/kg/d p.o. BID): 75.1 ± 3.0 | Left lung bronchial and arteriole damage score, fibrosis border ([1]; 30 mg/kg/d p.o. BID): 4.76 ± 0.16 | Left lung bronchial and arteriole damage score, fibrosis core ([1]; 30 mg/kg/d p.o. BID): 6.18 ± 0.26 | Left lung fibrosis score (Ashcraft) ([1]; 30 mg/kg/d p.o. BID): 2.6 ± 0.1 | Fibrosis score 1-3 (ratio of left lung fibrosis score) ([1]; 30 mg/kg/d p.o. BID): 81.0 ± 4.8 | Fibrosis score 4-8 (ratio of left lung fibrosis score) ([1]; 30 mg/kg/d p.o. BID): 19.0 ± 4.8 | Left lung fibrosis area ([1]; 30 mg/kg/d p.o. BID): 66.4 ± 2.9 | Left lung bronchial and arteriole damage score, fibrosis border ([1]; 100 mg/kg/d p.o. BID): 4.18 ± 0.53 | Left lung bronchial and arteriole damage score, fibrosis core ([1]; 100 mg/kg/d p.o. BID): 6.28 ± 0.21 | Left lung fibrosis score (Ashcraft) ([1]; 100 mg/kg/d p.o. BID): 2.4 ± 0.2 | Fibrosis score 1-3 (ratio of left lung fibrosis score) ([1]; 100 mg/kg/d p.o. BID): 84.0 ± 4.3 | Fibrosis score 4-8 (ratio of left lung fibrosis score) ([1]; 100 mg/kg/d p.o. BID): 16.0 ± 4.3 | Left lung fibrosis area ([1]; 100 mg/kg/d p.o. BID): 70.5 ± 3.0 | Body weight recovery ([1]; CPD treatment groups vs model group): no significant difference in body recovery | Share of Ashcraft score ≤ score 3 ([1]; all drug treatment groups, model over 60% ≥ score 4): ~80% | MMP-12 expression in fibrosis core (IHC) ([1]; clear dose dependent reduction (p>0.05 as printed)): significant reduction | Collagen-I deposition in fibrosis core (IHC) ([1]; each dose, p<0.05): significant dosing dependent reduction | Collagen-IV deposition in fibrosis core (IHC) ([1]; p<0.05): significant dose dependent reduction | Elastin expression in fibrosis core (IHC) ([1]; p<0.05): significant reduction | TGF-β1 expression in fibrosis core (IHC) ([1]; p<0.05): significant reduction | Non invasive lung function (TV, MV, breath rate, Penh) ([1]; vs vehicle treated animals, all doses): did not show any significant changes | pIC50 [2]: 6.00 to 7.00 | pIC50 [3]: 7.00 to 8.00
